The structures appear in SMILES notation.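 Compound exposure: 48 hours, 5 concentrations, 96-well plates. TGI denotes the concentration required for complete inhibition of growth.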 Where a SMILES comes first, the peptide text is derived from it. [ ]: non-standard residue; d: D form. The star is where a group is joined. Octanoyl = CCCCCCCC(=O)*; Aib = CC(C)(N)C(=O)O; tBu = CC(C)(C)* Some results are limits rather than exact numbers.

Holding throughout (test): NCI tumour cell line growth inhibition, 48 h
The subject of test [1] is A498 renal.
Test [2] deals with HL-60(TB) leukemia.
The test system of test [3] is HCC-2998 colon.
Test [4] relates to OVCAR-8 ovarian.
Test [5] deals with SR leukemia.
In test [6] the test system is SN12C renal.
The subject of test [7] is UACC-257 melanoma.
Test [8] has as its system A549 NSCLC.
The test system of test [9] is NCI-H226 lung.
Test [10] has as its system HCT-15 colon.
Test [11] has as its system COLO 205 colon.
The test system of test [12] is PC-3 prostate.
Test [13] has as its system OVCAR-5 ovarian.
Test [14] concerns EKVX NSCLC.
Test [15] relates to U251 CNS.
In test [16] the test system is HCT-116 colon.

In the case of `CN(C)c1nc(-c2ccccc2)c(C(=O)c2c[nH]c3ccccc23)s1`, the TGI was > 100 µM in [1]; 16.5 µM in test [2]; > 70.6 µM in [3]; > 100 µM in test [4]; > 100 µM in test [5]; > 100 µM in test [6]. The TGI in test [7], in test [8], in [9], in test [10], in test [11] and in test [12] was > 100 µM in each case. Besides, the TGI in [13], in [14], in test [15] and in test [16] was > 100 µM in each case.
With `O=C(OC(=C(c1ccccc1)c1ccccc1)N1CCCC1=S)C(c1ccccc1)c1ccccc1`, the TGI in test [1], in [2], in test [3], in test [4], in test [5] and in test [6] was > 10 µM in each case. The TGI was > 10 µM in [7]; > 10 µM in test [8]; > 10 µM in test [9]; > 10 µM in test [10]; 5.5 µM in [11]; > 10 µM in [12]. In addition, the TGI in [13], in test [14], in test [15] and in [16] was > 10 µM throughout.
With `C=C1c2nc3ccccc3n2C=C(c2ccccc2)N1c1ccccc1`, the TGI in test [1] was > 100 µM; in test [2], > 100 µM; in test [3], 28.8 µM; in test [4] it was > 100 µM; in test [5] it was > 100 µM; in [6] it was > 100 µM. The TGI in test [7] was > 100 µM; in test [8] it was > 100 µM; in test [9], > 100 µM; in test [10], 51.9 µM; in [11] it was > 100 µM; in test [12], > 100 µM. Moreover, the TGI in test [13], in test [14], in test [15] and in test [16] was > 100 µM in each case.
`CC(C)n1c2c([n+](C)c1/C=C/c1ccccc1)C(=O)c1ccccc1C2=O`: the TGI was 2.76 µM in [1]; 1.14 µM in test [2]; 2.06 µM in test [3]; 1.96 µM in test [4]; > 21 µM in [5]; 0.169 µM in [6]. In addition, the TGI was determined as 0.123 µM in [7]; 4.68 µM in test [8]; 2.2 µM in test [9]; 23.9 µM in test [10]; 0.0993 µM in [11]; 0.726 µM in test [12]. In addition, the TGI in [13] turned out to be 1.28 µM; in test [14], 1.25 µM; in test [15], 0.738 µM; in [16], 0.433 µM.
Regarding `CC(NC(=O)OC(C)(C)C)C(=O)C(N)=O` (configuration not stated), the TGI in test [1], in test [2], in test [3], in test [4], in test [5] and in test [6] was > 100 µM in each case. Further, the TGI in [8], in [9], in test [10], in test [11], in [12] and in [13] was > 100 µM in each case. Moreover, the TGI in test [14], in test [15] and in test [16] was > 100 µM throughout.
Take `CC(CO)C1=CC(C#CCOCc2ccccc2)N(C(=O)Oc2ccccc2)c2ccccc21` (configuration not stated): the TGI in [1] was 24.2 µM; in [2], > 100 µM; in [3], > 100 µM; in test [4] it was > 100 µM; in test [5] it was > 100 µM; in test [6], 68.6 µM. Moreover, the TGI was 88.2 µM in [7]; > 100 µM in test [8]; > 100 µM in [9]; 29.7 µM in test [10]; 28.4 µM in [11]; > 100 µM in test [12]. In addition, the TGI was > 100 µM in test [13], 73 µM in test [14], > 100 µM in test [15] and > 100 µM in test [16].
Take `Cn1c(-c2ccc(/C=N\N3CCN(/N=C/c4ccc(-c5c[n+]6ccsc6n5C)cc4)CC3)cc2)c[n+]2ccsc12`: the TGI in test [1] is 82.3 µM; in [2] it was 48.3 µM; in test [4], > 100 µM; in test [5], > 100 µM; in test [6], > 100 µM; in [7], 67.9 µM. Further, the TGI in test [8] is > 100 µM; in [9] it was > 100 µM; in test [10], > 100 µM; in test [11], 36.3 µM; in [12], > 100 µM; in test [13], > 100 µM. The TGI in test [14], in [15] and in test [16] was > 100 µM each time.
On to `CCOC(=O)c1[nH]c2ccccc2c1C(=O)C[C@H](NC(=O)C(F)(F)F)C(=O)OC`, for which the TGI in [1], in [2], in [3], in test [4], in test [5] and in test [6] was > 100 µM each time. Also, the TGI in test [7], in [8], in [9], in test [10], in [11] and in test [12] was > 100 µM each time. Further, the TGI in test [13], in [14], in [15] and in test [16] was > 100 µM throughout.
Turning to `COc1ccc(O)c(C=NCCCN=Cc2cc(OC)ccc2O)c1`, the TGI in test [1] was > 100 µM; in test [2], 28.5 µM; in test [4], 69.9 µM; in test [5] it was > 100 µM; in [6], 83.5 µM; in test [7], 69.5 µM. Besides, the TGI in test [8] is > 100 µM; in test [9] it was 73.2 µM; in [10] it was 93.1 µM; in test [12] it was > 100 µM; in [13], > 100 µM; in test [14], 83 µM. The TGI is 56.9 µM in test [15] and > 100 µM in test [16].
Take `CCOC(=O)NC(NC(C)CC)(C(F)(F)F)C(F)(F)F` (configuration not stated): the TGI in test [1], in test [2], in test [4], in [5], in test [6] and in test [7] was > 100 µM each time. For the same compound, the TGI in [8], in [9], in test [10], in test [11], in test [12] and in [13] was > 100 µM in each case. For the same compound, the TGI in [14], in [15] and in [16] was > 100 µM throughout.
On to `O=C(O)c1ccc(C(c2c(O)c3ccccc3oc2=O)c2c(O)c3ccccc3oc2=O)cc1`, for which the TGI is > 100 µM in [1]; 0.129 µM in test [2]; > 100 µM in [3]; > 100 µM in test [4]; > 100 µM in [5]; > 100 µM in [6]. Also, the TGI in [7], in test [8], in test [10], in test [11], in test [12] and in test [13] was > 100 µM throughout. The TGI in [15] and in test [16] was > 100 µM in each case.
Turning to `O=C(Cc1ccc(Cl)c(Cl)c1)N(CCc1ccc(Cl)c(Cl)c1)CCN1CCCC1`, the TGI amounted to 3.45 µM in [1]; 3.35 µM in [2]; 3.33 µM in test [3]; 3.82 µM in [4]; 2.98 µM in test [5]; 3.51 µM in [7]. Moreover, the TGI in test [8] stood at 4.25 µM; in test [9] it was 4.91 µM; in [10], 3.7 µM; in test [11] it was 3.38 µM; in test [12], 3.77 µM; in [13] it was 3.48 µM. The TGI in test [14] amounted to 3.78 µM; in test [15], 3.15 µM; in [16] it was 3.09 µM.
Take `O=C(CCc1cccc(O)c1)NCCc1ccc(O)cc1`: the TGI in test [1], in [2], in test [4], in test [5], in test [6] and in test [7] was > 100 µM throughout. The TGI in [8], in [9], in test [10], in test [11], in test [12] and in [13] was > 100 µM in each case. The TGI in [14], in test [15] and in test [16] was > 100 µM throughout.
Regarding `OC1CN2CCS[C@H]2C(O)C1O` (some centres not stated), the TGI in test [1], in [2], in [3], in test [4], in test [5] and in [7] was > 100 µM each time. Besides, the TGI in test [8], in test [9], in test [10], in [11], in test [12] and in test [13] was > 100 µM throughout. Besides, the TGI in [14], in [15] and in test [16] was > 100 µM throughout.
For `Cc1cc(C)c2c(=O)n(CN3CCC(O)(c4ccccc4)CC3)sc2n1`, the TGI is > 100 µM in test [1]; 62.3 µM in test [2]; 57.3 µM in test [3]; > 100 µM in [4]; 82.8 µM in [5]; 86.2 µM in test [6]. Besides, the TGI in test [8] was > 100 µM; in test [9], > 100 µM; in test [10], > 100 µM; in [11], > 100 µM; in test [12] it was > 100 µM; in test [13] it was 68.7 µM. Besides, the TGI is 81.7 µM in test [14], > 100 µM in test [15] and > 100 µM in [16].
With `CC(C)NC(=O)OCCN=C1c2ccccc2CCc2ccccc21`, the TGI in test [2] is 45.7 µM; in test [3], 39 µM; in test [4], > 100 µM; in [5], 53 µM; in test [6], 46.2 µM; in test [7], 46 µM. Further, the TGI in test [8] is > 100 µM; in [9] it was 60.5 µM; in [10] it was 77.8 µM; in test [11] it was 35.7 µM; in test [12], 62.4 µM; in [13], 82.9 µM. Also, the TGI in test [14] worked out at 81.3 µM; in [15], 50.6 µM; in test [16], 46.6 µM.
As for `COC(=O)CCn1cnc2c(SC)ncnc21`, the TGI in test [1], in test [2], in test [4], in [5], in test [6] and in test [7] was > 100 µM in each case. For the same compound, the TGI in test [8], in [9], in test [11], in test [12], in [13] and in test [14] was > 100 µM in each case. Besides, the TGI in [16] is > 100 µM.
Turning to `CCCCCCCC(=O)NC(C)(C)C(=O)NC(COC(C)(C)C)C(=O)NC(CC(C)C)C(=O)NC(C)(C)C(=O)NC(COC(C)(C)C)C(=O)NC(COC(C)(C)C)C(=O)NC(CC(C)C)C(=O)NC(C)(C)C(=O)NC(COC(C)(C)C)C(=O)NC(C(=O)NC(CC(C)C)C(=O)OC)C(C)CC` (configuration not stated) (Octanoyl-[Aib]S(tBu)L[Aib]S(tBu)S(tBu)L[Aib]S(tBu)IL-OMe; configuration not given here), the TGI was 14 µM in [1]; 15.6 µM in [2]; > 25 µM in [4]; 17.9 µM in test [5]; 24.9 µM in [6]; > 25 µM in [7]. Also, the TGI was > 25 µM in [8]; 21.1 µM in test [9]; > 25 µM in [10]; 15.8 µM in [11]; 9.36 µM in [12]; 22.3 µM in test [13]. In addition, the TGI was 16.3 µM in test [14], 12.8 µM in [15] and > 25 µM in test [16].

These data come from PubChem BioAssay (NCI).
